From ChEMBL document CHEMBL1149054, “Isolation and structure of harzianum A: a new trichothecene from Trichoderma harzianum” (J Nat Prod, 1994) come the findings set out here.

Activity calls are given as the source filed them. The rule behind the calls is not given here.

One series concerns Micrococcus luteus. Kind of series: Antimicrobial activity against Micrococcus luteus at 1 mg/ml. The format is functional, organism-based.
In a further series the test system is Staphylococcus aureus. The experiment in a line: Antimicrobial activity against Staphylococcus aureus at 1 mg/ml. The format is functional, organism-based.
Series [1] can be described thus: Cytotoxicity against BHK cells upto 1 ug/ml. The conditions noted are these: hamster. Type of series: cell-based, Mesocricetus auratus.
The next series deals with Escherichia coli. The experiment in a line: Antimicrobial activity against Escherichia coli at 1 mg/ml. The format is functional, organism-based.

Take `CC1=C[C@H]2O[C@@H]3C[C@@H](OC(=O)\C=C/C=C/C=C/C(=O)O)[C@](C)([C@@]2(C)CC1)[C@]31CO1` [HARZIANUM A]: the outcome in the series on Micrococcus luteus, in the series on Staphylococcus aureus and in the series with Escherichia coli was inactive. Besides, the Activity entry in series [1] is “Non-toxic”.
